Results published in PMC6438780 (Xenobiotica; the fate of foreign compounds in biological …, 2018).
Where two headings read alike, the source gives them in different places.

Key:
[1] = system: liver microsomes of humans; details: ref data sheets provided by the manufacturer, cited from earlier work
human liver microsomes [2] = assay: Effects of CYP-specific inhibitors; details: liver sample HH54 microsomes
human liver microsomes [3] = system: human liver microsomes
CYP2A6.1 = target: T1, CYP2A6.1 (Homo sapiens, UniProt P11509); details: 20 min, 60 µM
T1 sequence (P11509 1-494): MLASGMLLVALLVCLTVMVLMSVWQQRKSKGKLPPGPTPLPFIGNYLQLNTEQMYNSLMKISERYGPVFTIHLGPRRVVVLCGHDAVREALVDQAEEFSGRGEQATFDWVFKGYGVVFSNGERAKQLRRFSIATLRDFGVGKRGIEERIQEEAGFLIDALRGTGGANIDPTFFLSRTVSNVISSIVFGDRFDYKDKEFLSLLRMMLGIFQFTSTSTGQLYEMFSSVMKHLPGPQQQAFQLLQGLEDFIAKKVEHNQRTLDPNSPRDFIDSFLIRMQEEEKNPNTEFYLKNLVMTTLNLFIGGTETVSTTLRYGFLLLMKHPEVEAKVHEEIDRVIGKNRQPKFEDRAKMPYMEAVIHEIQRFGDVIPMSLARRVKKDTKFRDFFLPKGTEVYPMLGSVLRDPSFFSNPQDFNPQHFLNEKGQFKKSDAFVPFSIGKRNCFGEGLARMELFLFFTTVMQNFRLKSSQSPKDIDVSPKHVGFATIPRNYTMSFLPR

human liver microsomes [4] = assay: Oxidation of flavanone and flavone by human liver microsomes; details: P450s and human liver microsomes, whole assay system

O=c1ccc2ccccc2o1 [coumarin]
Coumarin 7-hydroxylation ([1]; human sample HG95): 0.18 nmol/mg/min
Coumarin 7-hydroxylation ([1]; human sample HH2): no detectable
Coumarin 7-hydroxylation ([1]; human sample HH47): 0.51 nmol/mg/min
Coumarin 7-hydroxylation ([1]; human sample HH54): 2.5 nmol/mg/min
effect on formation of flavone (from flavanone) (human liver microsomes [2]; 60 µM flavanone): inhibited
effect on 2´OHFva formation (from flavanone) (human liver microsomes [2]; 60 µM flavanone, low concentration of inhibitor): markedly decreased
effect on formation of OHFM6, OHFM9, and diOHFM4 (from flavone) (human liver microsomes [2]; 60 µM flavone, low concentration of inhibitor): strongly inhibited

O=C1CC(c2ccccc2)Oc2ccccc21 (stereo not drawn) [flavanone, Flavanone]
rate of formation of flavone from flavanone (human liver microsomes [3]): 0.15 nmol/min/nmol

CC[C@@]1(c2ccccc2)NC(=O)N(C)C1=O [S-Mephenytoin]
S-Mephenytoin 4’-hydroxylation ([1]; human sample HG95): 0.015 nmol/min/mg
S-Mephenytoin N-demethylation ([1]; human sample HG95): 0.0070 nmol/min/mg
S-Mephenytoin 4’-hydroxylation ([1]; human sample HH2): 0.020 nmol/min/mg
S-Mephenytoin N-demethylation ([1]; human sample HH2): 0.010 nmol/min/mg
S-Mephenytoin 4’-hydroxylation ([1]; human sample HH47): 0.0040 nmol/min/mg
S-Mephenytoin N-demethylation ([1]; human sample HH47): 0.0065 nmol/min/mg
S-Mephenytoin 4’-hydroxylation ([1]; human sample HH54): 0.026 nmol/min/mg
S-Mephenytoin N-demethylation ([1]; human sample HH54): 0.0010 nmol/min/mg

O=c1cc(-c2ccccc2)oc2ccccc12 [flavone]
rate of formation of 5OHF from flavone (CYP2A6.1): ~ 0.01 nmol/min/nmol P450
rate of formation of 6OHF from flavone (CYP2A6.1): 0.11 min⁻¹
enzymatic formation of 7OHF from flavone (human liver microsomes [4]): did not detect

O=c1cc(-c2ccccc2)oc2c1ccc1ccccc12 [ANF, α-naphthoflavone]
effect on formation of 7OHFva, 3´OHFva, 4´OHFva OHFvaM5, and OHFvaM6 (from flavanone) (human liver microsomes [2]; 60 µM flavanone): inhibited
effect on formation of OHFM11, diOHFM3, and diOHFM5 (from flavone) (human liver microsomes [2]; 60 µM flavone): inhibited

C[C@]12CC[C@H]3[C@@H](CCC4=CC(=O)CC[C@@]43C)[C@@H]1CC[C@@H]2O [Testosterone]
Testosterone 6β-hydroxylation ([1]; human sample HG95): 0.64 nmol/mg/min
Testosterone 6β-hydroxylation ([1]; human sample HH2): 0.78 nmol/mg/min
Testosterone 6β-hydroxylation ([1]; human sample HH47): 4.1 nmol/mg/min
Testosterone 6β-hydroxylation ([1]; human sample HH54): 4.9 nmol/mg/min

CCOc1ccc(NC(C)=O)cc1 [Phenacetin]
Phenacetin O-deethylation ([1]; human sample HG95): 0.26 nmol/mg/min
Phenacetin O-deethylation ([1]; human sample HH2): 0.51 nmol/mg/min
Phenacetin O-deethylation ([1]; human sample HH47): 0.36 nmol/mg/min
Phenacetin O-deethylation ([1]; human sample HH54): 0.44 nmol/mg/min

CC(=O)O[C@H]1C(=O)[C@@]2(C)[C@H]([C@H](OC(=O)c3ccccc3)[C@]3(O)C[C@H](OC(=O)[C@H](O)[C@@H](NC(=O)c4ccccc4)c4ccccc4)C(C)=C1C3(C)C)[C@]1(OC(C)=O)CO[C@@H]1C[C@@H]2O [Paclitaxel]
Paclitaxel 6a-hydroxylation ([1]; human sample HG95): 0.093 nmol/min/mg
Paclitaxel 6a-hydroxylation ([1]; human sample HH2): 0.13 nmol/min/mg
Paclitaxel 6a-hydroxylation ([1]; human sample HH47): 0.13 nmol/min/mg
Paclitaxel 6a-hydroxylation ([1]; human sample HH54): 0.21 nmol/min/mg
